Assay results published in patent US9133168B2, “Pyrimidine derivatives, preparation thereof, and pharmaceutical use thereof as akt(pkb) phosphorylation inhibitors” (SANOFI, priority 2010, dated 2015).

Test system: AKT protein phosphorylated on serine 473 (P-AKT-S473) in PC3 human prostate carcinoma cells
Experiment: pAKT expression in PC3 human prostate carcinoma cells, MSD Multi-spot Biomarker detection (Test A)
Format: cell-based
Settings: 1 to 2 h incubation, P-AKT-S473, absolute IC50, mean of two independent experiments
Method: The inhibitory activity of the molecules on AKT phosphorylation is measured using the MSD Multi-spot Biomarker detection technique from Meso Scale Discovery also described below. […] The primary antibody specific for […]) is coated on to an electrode in each well of the 96-well plates of the MSD kit: after the addition of a protein lysate to each well, the signal is visualized by adding a secondary detection antibody labeled with an electrochemiluminescent compound. The procedure followed is the one described in the kit. […] On day 2, the cells are incubated in the presence or absence of the test products for 1 to 2 h at 37° C. in the presence of 5% CO2. The molecules, diluted in dimethyl sulfoxide (DMSO Sigma #D2650), are added from a 20-times concentrated stock solution, the final percentage of DMSO being 0.1%. The molecules are tested either at a single concentration of less than or equal to 10 μM, or at increasing concentrations in a range that can extend from less than 1 nM to 10 μM. After this incubation, the cells are lysed for the preparation of the proteins. […] At this stage, the plates containing the lysates can be frozen at -20° C. or at -80° C. The wells of the 96 well plates of the MSD kit are saturated for 1 h at ambient temperature with the blocking solution of the MSD kit. Four washes are carried out with 150 μl of Tris Wash Buffer of the MSD kit. The lysates previously prepared are transferred into the 96-well multi-spot plates of the MSD kit and incubated for 1 h at ambient temperature, with shaking. Four washes are carried out with 150 μl of Tris Wash Buffer of the MSD kit. 25 μl of the MSD sulfo-tag detection antibody solution are added to the wells and incubated for 1 h at ambient temperature, with shaking. Four washes are carried out with 150 μl of Tris Wash Buffer of the MSD kit. 150 μl of Read Buffer of the MSD kit are added to the wells and the plates are read immediately on the S12400 instrument from Meso Scale Discovery. The instrument measures a signal for each well. Wells without cells and containing the lysis buffer serve to determine the background noise that will be subtracted from all the measurements (min). The wells containing cells in the absence of product and in the presence of 0.1% DMSO are considered to be the 100% signal (max). The percentage inhibition is calculated for each concentration of product tested, according to the following formula: (1-((test-min)/(max-min)))×100. […] Two independent experiments make it possible to calculate the mean of the IC50 values.

IC50 (PC3 cells) | IC50 (Homo sapiens, PC-3, PC3 cells) | SMILES
1 nM |  | CC1Cc2c(ccc(F)c2F)N1C(=O)Cc1nc(N2CCOCC2)cc(=O)[nH]1 (single isomer, unassigned; (-)) [Example 18c, (−)-2-{2-[4,5-difluoro-2-methyl-2,3-dihydro-1H-indol-1-yl]-2-oxoethyl}-6-(morpholin-4-yl)pyrimidin-4(3H)-one]
2 nM |  | CC1Cc2c(ccc(F)c2F)N1C(=O)Cc1nc(N2CCOCC2)c(F)c(=O)[nH]1 (stereo not drawn) [Example 20a, 2-[2-((−)-4,5-difluoro-2-methyl-2,3-dihydroindol-1-yl)-2-oxoethyl]-5-fluoro-6-morpholin-4-yl-3H-pyrimidin-4-one]
 | 158 nM | Cn1c(CC(=O)N2CCc3c(F)cccc32)nc(N2CCOCC2)c(F)c1=O [Example 3a, 5-fluoro-2-[2-(4-fluoro-2,3-dihydro-1H-indol-1-yl)-2-oxoethyl]-3-methyl-6-(morpholin-4-yl)pyrimidin-4(3H)-one]
 | 71 nM | C[C@@H]1Cc2ccccc2N1C(=O)Cc1nc(N2CCOCC2)cc(=S)n1C [Example 5e, 1-((R)-2-methyl-2,3-dihydroindol-1-yl)-2-(1-methyl-4-morpholin-4-yl-6-thioxo-1,6-dihydropyrimidin-2-yl)ethanone]
 | 12 nM | CC1CN(c2cc(=O)[nH]c(CC(=O)N3CCc4c(Cl)cccc43)n2)CCO1 (stereo not shown) [Example 28b, 2-[2-(4-chloro-2,3-dihydroindol-1-yl)-2-oxoethyl]-6-(2-methylmorpholin-4-yl)-3H-pyrimidin-4-one]
20 nM |  | CC1Cc2c(Cl)cccc2N1C(=O)Cc1nc(N2CCOCC2)c(F)c(=O)n1C (stereo not drawn) [Example 29a, 5-fluoro-2-[2-((−)-4-chloro-2-methyl-2,3-dihydroindol-1-yl)-2-oxoethyl]-3-methyl-6-morpholin-4-yl-3H-pyrimidin-4-one]
 | 35 nM | Cn1c(CC(=O)N2CC(C)(C)c3c(Cl)cccc32)nc(N2CCOCC2)cc1=O [Example 4c, 2-[2-(4-chloro-3,3-dimethyl-2,3-dihydro-1H-indol-1-yl)-2-oxoethyl]-3-methyl-6-(morpholin-4-yl)pyrimidin-4(3H)-one]
 | 19 nM | CC1Cc2c(ccc(F)c2F)N1C(=O)Cc1nc(N2CCOCC2)cc(=O)n1C (single isomer, unassigned; (+)) [Example 19c, (+)-2-{2-[4,5-difluoro-2-methyl-2,3-dihydro-1H-indol-1-yl]-2-oxoethyl}-3-methyl-6-(morpholin-4-yl)pyrimidin-4(3H)-one]
 | 40 nM | CC1Cc2ccc(F)cc2N1C(=O)Cc1nc(N2CCOCC2)c(F)c(=O)[nH]1 (stereo not drawn) [Example 32a, 5-fluoro-2-[2-((−)-6-fluoro-2-methyl-2,3-dihydroindol-1-yl)-2-oxoethyl]-6-morpholin-4-yl-3H-pyrimidin-4-one]
 | 3000 nM | COc1cc(-c2cc(=O)[nH]c(CC(=O)N3CCc4c(F)cccc43)n2)ccn1 [Example 13b, 2-[2-(4-fluoro-2,3-dihydroindol-1-yl)-2-oxoethyl]-6-(2-methoxypyridin-4-yl)-3H-pyrimidin-4-one]
240 nM |  | O=C(Cc1nc(N2CCOC(CO)C2)cc(=O)[nH]1)N1CCc2c(Cl)cccc21 (single isomer, unassigned; (+)) [Example 26b, (+)-2-[2-(4-Chloro-2,3-dihydroindol-1-yl)-2-oxoethyl]-6-(2-hydroxymethylmorpholin-4-yl)-3H-pyrimidin-4-one]
6 nM |  | CC1CN(c2cc(=O)[nH]c(CC(=O)Nc3ccc(F)cc3)n2)CCO1 (single isomer, unassigned; (+)) [Example 2b, (+)-N-(4-fluorophenyl)-2-[4-(2-methylmorpholin-4-yl)-6-oxo-1,6-dihydropyrimidin-2-yl]acetamide]
 | 9 nM | O=C(Cc1nc(N2CCOCC2)cc(=O)[nH]1)N1CCc2c1cccc2C(F)(F)F [Example 5d, 6-(morpholin-4-yl)-2-{2-oxo-2-[4-(trifluoromethyl)-2,3-dihydro-1H-indol-1-yl]ethyl}pyrimidin-4(3H)-one]
9 nM |  | CC1Cc2ccc(F)cc2N1C(=O)Cc1nc(N2CCOCC2)cc(=O)[nH]1 (stereo not drawn) [Example 36c, 2-{2-[(−)-6-fluoro-2-methyl-2,3-dihydro-1H-indol-1-yl]-2-oxoethyl}-6-(morpholin-4-yl)pyrimidin-4(3H)-one]
60 nM |  | CC1Cc2c(OC(F)F)cccc2N1C(=O)Cc1nc(N2CCOCC2)cc(=O)n1C (single isomer, unassigned; (-)) [Example 32d, (−)-2-{2-[4-(difluoromethoxy)-2-methyl-2,3-dihydro-1H-indol-1-yl]-2-oxoethyl}-3-methyl-6-(morpholin-4-yl)pyrimidin-4(3H)-one]
115 nM |  | CC1Cc2c(O)cccc2N1C(=O)Cc1nc(N2CCOCC2)cc(=O)[nH]1 (single isomer, unassigned; (+)) [Example 9c, (+)-2-{2-[4-hydroxy-2-methyl-2,3-dihydro-1H-indol-1-yl]-2-oxoethyl}-6-(morpholin-4-yl)pyrimidin-4(3H)-one]
 | 156 nM | C[C@H]1Cc2ccccc2N1C(=O)Cc1nc(N2CCOC(CO)C2)cc(=O)[nH]1 (single isomer, unassigned; (+)) [Example 31b]
28 nM |  | CC1Cc2cc(F)ccc2N1C(=O)Cc1nc(N2CCOCC2)cc(=O)n1C (single isomer, unassigned; (+)) [Example 15c, (+)-2-{2-[5-fluoro-2-methyl-2,3-dihydro-1H-indol-1-yl]-2-oxoethyl}-3-methyl-6-(morpholin-4-yl)pyrimidin-4(3H)-one]
24 nM |  | CC1Cc2c(O)cccc2N1C(=O)Cc1nc(N2CCOCC2)cc(=O)[nH]1 (stereo not shown) [Example 6c, 2-[2-(4-hydroxy-2-methyl-2,3-dihydro-1H-indol-1-yl)-2-oxoethyl]-6-(morpholin-4-yl)pyrimidin-4(3H)-one]
13 nM |  | O=C(Cc1nc(N2CCOCC2)cc(=O)[nH]1)N1c2ccccc2CC1CF (stereo not drawn) [Example 40d, 2-[2-((−)-2-Fluoromethyl-2,3-dihydroindol-1-yl)-2-oxoethyl]-6-morpholin-4-yl-3H-pyrimidin-4-one]
2 nM |  | CC1Cc2cc(F)ccc2N1C(=O)Cc1nc(N2CCOCC2)cc(=O)[nH]1 (single isomer, unassigned; (-)) [Example 14c, (−)-2-{2-[5-fluoro-2-methyl-2,3-dihydro-1H-indol-1-yl]-2-oxoethyl}-6-(morpholin-4-yl)pyrimidin-4(3H)-one]
 | 155 nM | O=C(Cc1nc(N2CCOCC2)cc(=O)[nH]1)N1CC2(CCOCC2)c2ccccc21 [Example 21d, 6-(morpholin-4-yl)-2-[2-oxo-2-(2′,3′,5′,6′-tetrahydrospiro[indole-3,4′-pyran]-1(2H)-yl)ethyl]pyrimidin-4(3H)-one]
16 nM |  | C[C@H]1Cc2ccccc2N1C(=O)Cc1nc(N2CCOCC2)cc(=O)[nH]1 [Example 19b, (+)-2-[2-(2-methyl-2,3-dihydroindol-1-yl)-2-oxoethyl]-6-morpholin(D4)-4-yl-3H-pyrimidin-4-one]
 | 22 nM | O=C(Cc1nc(N2CCOCC2)c(F)c(=O)[nH]1)N1CCc2c(F)cccc21 [Example 1a, 5-fluoro-2-[2-(4-fluoro-2,3-dihydro-1H-indol-1-yl)-2-oxoethyl]-6-(morpholin-4-yl)pyrimidin-4(3H)-one]

SMILES | IC50 (PC3 cells) | IC50 (Homo sapiens, PC-3, PC3 cells)
CS(=O)(=O)N1CCN(Cc2cccc3c2CCN3C(=O)Cc2nc(N3CCOCC3)cc(=O)[nH]2)CC1 [Example 17d, 2-[2-(4-{[4-(methylsulfonyl)piperazin-1-yl]methyl}-2,3-dihydro-1H-indol-1-yl)-2-oxoethyl]-6-(morpholin-4-yl)pyrimidin-4(3H)-one] |  | 259 nM
